“Also recorded” adds a separate entry of the source.
Test system: KC mice
Experiment: Vagotomized KC mice (KC+VxPP) treated with bethanechol in drinking water
Format: in vivo, mouse
Details: for pancreatic tumor (PDAC) incidence: bethanechol 400 μg/ml in drinking water, at 20 weeks; for pancreatic CD44 expression: bethanechol vs KC+VxPP controls, immunostaining
Method: Thus, KC mice that underwent vagotomy treated with or without Bethanechol, a broad muscarinic agonist, were compared. Bethanechol treatment (400 μg/ml) started immediately after receiving surgery and continued till 20 weeks.
K-Ras^+/LSL-G12D, p53^+/R172H, and Pdx-1-Cre mice were provided by Dr. Kenneth Olive (Columbia University). M1RKO mice were purchased from the Jackson Laboratory. KC mice and KPC mice were crossed with M1RKO mice. For several experiments, KC mice received pyloroplasty with or without vagotomy at 8 weeks and KC+VxPP mice were treated with or without bethanechol (400 μg/ml) after surgery immediately. They were sacrificed at 20 weeks. In addition, KPC mice were treated with gemcitabine biweekly and with or without bethanechol when the tumor size of 3-5 mm detected using ultrasound. They were sacrificed when the mice were moribund. For liver metastatic experiments, WT type C57/B6 mice received spleen injection and hemi-splenectomy. […] They were sacrificed when the mice were moribund.
Bethanechol treatment (400 μg/ml in drinking water) was started in KC mice at 8 weeks, immediately after the mice received surgery, and continued until 20 weeks of age.
LSL-Kras^+/LSL-G12D, LSL-Trp53^+/R172H, and Pdx1-Cre mice were bred by Dr. Kenneth P. Olive and co-workers. Chrm1KO mice (C57BL/6-Chrm1tm1 Stl/J, (M1RKO) mice^1 were purchased from the Jackson Laboratory. KC mice and KPC mice were crossed with M1RKO mice. In the vagotomy experiments, KC mice received pyloroplasty with or without vagotomy at 8 weeks, and some KC+VxPP mice were treated with bethanechol ([…] in drinking water) immediately after surgery and then sacrificed at 20 weeks. KPC mice in treatment studies were palpated weekly for tumors in the pancreas. Once a tumor was suspected, KPC mice were screened by VEVO 2100—Ultrasound Imaging System (FUJIFILM VisualSonics) for pancreatic cancer. KPC mice were treated with gemcitabine, given by i.p. injection 100 mg/kg biweekly, with or without bethanechol, when a tumor size of 3-5 mm was detected using ultrasound. Mice were sacrificed when the mice were moribund. NOD/SCID mice were implanted with Panc1 cells subcutaneously and sacrificed at 30 days after implantation. For liver metastatic experiments, WT type C57/B6 mice received a splenic injection of labeled Panc02 cells, followed by hemi-splenectomy. The mice were then divided into three groups. […] Mice were then sacrificed when moribund. At necropsy, hepatic metastases that could clearly be identified as tumor nodules on gross inspection were separated. All animal studies and procedures were approved by the IACUC committee at Columbia University. All mice were bred under specific pathogen free conditions. Comparisons were made with age- and sex-matched control animals.
5 μm paraffin embedded or PFA-fixed frozen sections were prepared for immunohistochemistry and immunofluorescence, respectively. For immunofluorescence, slides were washed with 1% Triton X-100 in PBS, rinsed and blocked for 30 min with 2% bovine serum albumin (BSA—Sigma-Aldrich). Primary antibodies and fluorophore-conjugated secondary antibodies were diluted in 2% BSA and incubated over night at 4° C. The following primary antibodies were used; Chrm1 (1:200 Santa Cruz), Ki67 (1:500 Abcam), p-EGFR (1:200 Abcam), and CD44 (1:200 BIO-RAD). For immunohistochemical staining, slides were deparaffinized in xylene and endogenous peroxidase was blocked by incubation with 3% hydrogen peroxide in methanol for visualization using the peroxidase reaction.

[1] = vagotomized KC mice, bethanechol treatment

With `CC(C[N+](C)(C)C)OC(N)=O` (stereo not drawn) [bethanechol, 2-[(aminocarbonyl)oxy]-N,N,N-trimethyl-1-propanaminium] the M1R expression (KC mice following vagotomy, bethanechol in drinking water) was “reduced”, the PanIN area (KC+VxPP mice, bethanechol 400 μg/ml in drinking water from 8 to 20 weeks, vs untreated KC+VxPP) was “significant reduction; also recorded: reduced” and the “pancreatic tumor (PDAC) incidence” value (KC+VxPP mice, vs untreated KC+VxPP) was “reduced; also recorded: inhibits”. For the same molecule, the “pancreatic tumor (PDAC) incidence” value (KC+VxPP mice, vs untreated KC+VxPP, listed as Bethanechol) was “significant reduction; also recorded: significant decrease”, the “pancreatic CD44 expression” value (KC+VxPP mice) was “significant decrease; also recorded: reduced” and the “pancreatic CD44 expression” value (KC+VxPP mice, listed as Bethanechol) was “reduced”. For the same molecule, the area of inflammation (vagotomized KC mice, bethanechol 400 μg/ml, vs KC+VxPP control group) was “significant reduction”, the “accelerated tumorigenesis / PanIN progression after vagotomy (KC phenotype)” value [1] was “ameliorated; also recorded: suppresses; also recorded: restored the normal KC phenotype; also recorded: reduces” and the “expression of p-EGFR, p-PI3K and p-ERK1/2 (immunohistochemical staining)” value [1] was “significantly suppressed”. The “systemic and splenic levels of TNFα, CD11b+ and F4/80+ pancreatic myeloid cells” value [1] was “suppressed”, the “tumor-associated macrophages (TAM) increased by vagal denervation” value [1] was “abolished” and the “accelerated tumorigenesis / PanIN progression after vagotomy (KC phenotype)” value (vagotomized KC mice, bethanechol treatment, listed as Bethanechol) was “abrogate; also recorded: suppressed”.
